Data from publication PMC4850295, “Using a Genetically Encoded Sensor to Identify Inhibitors of Toxoplasma gondii Ca^2+ Signaling” (The Journal of Biological Chemistry, 2016).

test system: T1, GCaMP5-expressing T. gondii; design: species or system GCaMP5-expressing Toxoplasma gondii, extracellular; GCaMP5 fluorescence (cytosolic Ca2+) after 100 uM zaprinast in compound-pretreated extracellular parasites, background-subtracted, relative to zaprinast alone; conditions: 100 uM zaprinast stimulation; 10 min pretreatment; mean of two replicates; 0.23 h
T1 construct: whole extracellular parasites expressing GCaMP5 Ca2+ sensor
Procedure, shortened: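 Extracellular GCaMP5-expressing parasites in Ringer's solution were pretreated with compounds (single 10 μM dose, two biological replicates) for 10 min, then stimulated with 100 μM zaprinast at 37 °C for 4 min. Fluorescence read at 485/525 nm, basal subtracted, expressed as fold change relative to zaprinast-only parasites.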

| SMILES | fold change in fluorescence relative to zaprinast alone |
| --- | --- |
| NS(=O)(=O)c1cccc(-c2ccc3ncc(N4CCOCC4)nc3c2)c1 [GSK1535721A] | 1.22 |
| Nc1n[nH]c2nnc(-c3ccccc3)c(-c3ccccc3)c12 [GW554060X] | 1.19 |
| O=c1[nH]cc(-c2ccc(N3CCOCC3)cc2)c2sc(-c3cn[nH]c3)cc12 [GSK2276055A] | 0.8496 |
| Fc1cccc(COc2ccc(Nc3ncncc3C#Cc3ccccc3)cc2Cl)c1 [GW651576X] | 1.149 |
| O=C(c1ccc(-c2cc(-c3cn[nH]c3-c3ccccn3)ccn2)cc1)N1CCOCC1 [GW812171X] | 1.17 |
| CC1=C(C(=O)Nc2ccc3[nH]ncc3c2)C(c2ccc(Cl)c(Cl)c2)CC(=O)N1 (centres unmarked) [GSK299115A] | 1.214 |
| COc1cccc(-n2cnc3c(N)ncnc32)c1 [SKF-97416] | 1.043 |
| CNC(=O)Oc1cc(C)c(/C=C/c2cncc(C(=O)NC)c2)c(C)c1 [GW432441X] | 1.157 |
| Cc1cc(NCC(c2ccccc2)c2ccccc2)nc(NCc2ccc(C(F)(F)F)cc2)n1 [GW497681X] | 1.268 |
| CC(=O)Nc1ccc(COc2ccc(Nc3ccnc4cc(-c5ccccn5)ccc34)cc2)cc1 [GW440148A] | 1.657 |
| COC(=O)Nc1nc2ccc(Oc3ccc(NC(=O)Nc4cc(C(F)(F)F)ccc4Cl)cc3)cc2[nH]1 [GW697465A] | 0.849 |
| O=C(Nc1n[nH]c2nc(-c3cccs3)c(Br)cc12)C1CCCC1 [SB-743341] | 0.9376 |
| c1ccc(Oc2ccc(Nc3ccnc4ccc(-c5ccccn5)cc34)cc2)cc1 [GW407034X] | 0.6551 |
| C[C@@H](Oc1cc(-n2cnc3cc(-c4ccncc4)ccc32)sc1C(N)=O)c1ccccc1Cl [GSK479719A] | 1.296 |
| CC(=O)c1c(-c2ccncc2)[nH]c(-c2ccncc2)c1C [GW493036X] | 1.057 |
| NC(CNC(=O)c1cc(Br)c(-c2ccnc3[nH]ccc23)s1)c1ccccc1 (centres unmarked) [GSK1322949A] | 0.4024 |
| CSc1ccc(NC2=C(c3ccc(Cl)cc3)C(=O)NC2=O)cc1 [SB-317658] | 0.971 |
| Fc1ccc(-c2ncn(CCCN3CCOCC3)c2-c2cccnc2)cc1 [SB-211743] | 1.228 |
| CCn1c(-c2nonc2N)nc2cncc(Br)c21 [SB-738004] | 0.8309 |
| Fc1ccc(-c2c(-c3ccccn3)nc3n2CCS3)cc1 [SKF-104365] | 0.9062 |
| CN(C1=C(c2ccccc2)C(=O)NC1=O)c1ccccc1 [SB-334860] | 0.8099 |
| Fc1cccc(COc2ccc(Nc3ncnc4sc(-c5ccc[nH]5)cc34)cc2Cl)c1 [GW707818B] | 0.2741 |
| CNC(=O)c1ccccc1Nc1nc(Nc2ccc(N3CCOCC3)cc2)ncc1Cl [GSK1576028A] | 1.198 |

| SMILES | fold change in fluorescence relative to zaprinast alone |
| --- | --- |
| Fc1ccc(-c2nn3ccccc3c2-c2ccncc2)cc1 [GW434756X] | 0.1696 |
| COc1cc2ncnc(Nc3cccc(Br)c3)c2cc1OC [GI230329A] | 1.268 |
| CCc1cccc(CC)c1/C=C/c1cncc(C(=O)NC)c1 [GW450241X] | 1.076 |
| COC(=O)C(Cc1ccccc1)NC(=O)NC1CCN(c2ccnc(Nc3ccc(F)cc3)n2)C1 (centres unmarked) [GSK1379714A] | 0.7659 |
| O=C(Nc1n[nH]c2cc(-c3ccc(F)cc3)ccc12)C1CC1 [SB-735467] | 0.9628 |
| Nc1nc(-c2nccs2)c(-c2ccnc3ccccc23)s1 [GW693542X] | 0.8815 |
| CN1CCN(C(=O)c2ccc(NC(=O)Nc3ccc(N(C)c4ccnc(Nc5ccc(CS(C)(=O)=O)cc5)n4)cc3)cc2)CC1 [GW830263A] | 1.245 |
| Cc1ccc(-c2nc(Nc3ccncc3)c3ccccc3n2)s1 [GSK189015A] | 0.1154 |
| CC(C)Oc1ccc2c(-c3ccnc(Nc4ccc(N5CCN(C)CC5)cc4)n3)cnn2n1 [GW696155X] | 0.6015 |
| CN(c1ccc(NC(=O)NCCN2CCOCC2)cc1)c1ccnc(Nc2ccc(CS(C)(=O)=O)cc2)n1 [GW830365A] | 1.217 |
| c1ccc(-c2cnc3nccnn23)cc1 [AH20685XX] | 1.296 |
| COc1ccc(-c2oc3ncnc(N)c3c2-c2ccc(OC)cc2)cc1 [SB-589132] | 1.026 |
| O=C1Nc2ccc(-c3cccnc3)cc2C1=Cc1cc(Br)c(O)c(Br)c1 [GW429374A] | 1.179 |
| NS(=O)(=O)c1ccc(Nc2cc(-c3ccc(O)c(F)c3)n[nH]2)cc1 [GW831091X] | 1.195 |
| O=C1NC(=O)C(N2CCc3ccccc32)=C1c1cccc(Cl)c1 [SB-408010] | 0.7986 |
| COc1cccc2c(-c3ccncc3)c(-c3ccc(F)cc3)nn12 [GW468513X] | 0.06975 |
| Cn1cc(-c2ccc3c(c2)CCN3C(=O)Cc2cccc(Cl)c2)c2c(N)ncnc21 [GSK2606590A] | 1.488 |
| NS(=O)(=O)c1cccc(N=Cc2c(O)[nH]c3ccc(S(=O)(=O)Cc4c(Cl)cccc4Cl)cc23)c1 [GSK398099A] | 1.056 |
| CN(C)CCCC(=O)Nc1n[nH]c2nnc(-c3ccccc3)cc12 [SB-627772-A] | 1.028 |
| CS(=O)(=O)CCNCc1ccc(-c2ccc3ncnc(Nc4ccc(OCc5ccccc5)cc4)c3c2)o1 [GW458787A] | 0.4223 |
| Cc1ccccc1CC(=O)N1CCc2cc(-c3cn(C)c4ncnc(N)c34)ccc21 [GSK2603346A] | 1.278 |
| Cc1ccc(NC(=O)c2ccnc(N3CCN(C)CC3)c2)cc1-c1ccc(C(=O)NCC2CC2)cc1 [GW775604X] | 1.197 |
| CN(c1ccc(NC(=O)Nc2c(Cl)cccc2Cl)cc1)c1ccnc(Nc2cccc(CS(C)(=O)=O)c2)n1 [GW809897X] | 1.103 |

| SMILES | fold change in fluorescence relative to zaprinast alone |
| --- | --- |
| CCn1c(-c2nonc2N)nc2c(C#CC(C)(C)O)nc(OCCN)cc21 [GSK902056A] | 1.153 |
| C[C@@H](Oc1cc(-n2cnc3cc(-c4ccnc(N5CCN(C)CC5)c4)ccc32)sc1C(N)=O)c1ccccc1Cl [GSK641502A] | 1.062 |
| COc1ccc(C)c(Nc2ccnc(Nc3ccc(-c4cnc[nH]4)cc3)n2)c1 [GW784041A] | 1.009 |
| COc1cc2c(cc1Nc1nc(N3CCc4ccccc43)c3cc[nH]c3n1)N(C(=O)CN(C)C)CC2 [GSK2186269A] | 1.113 |
| COc1cc(Nc2nccc(N3CCC(NC(=O)c4cccc(NC(C)=O)c4)C3)n2)cc(OC)c1OC (centres unmarked) [GSK1379754A] | 1.271 |
| COc1cc(Nc2ncc3c(C)nc(-c4cccc(Oc5ccccc5)c4)n3n2)cc(OC)c1OC [GW861893X] | 0.7386 |
| COc1ccc2[nH]c3c4[nH]c5ccc(OC)cc5c4c4c(c3c2c1)C(=O)NC4=O [GW296115X] | 0.5167 |
| COC(=O)c1cccc(NC(=O)NC2CCN(c3ccnc(Nc4cc(OC)c(OC)c(OC)c4)n3)C2)c1 (centres unmarked) [GSK1379767A] | 1.23 |
| Cc1ccc(NC(=O)c2ccc(Cl)c(Cl)c2)cc1-c1ccc(C(=O)Nc2ccncc2)cc1 [GSK1398460A] | 1.557 |
| Cc1nnc(-c2ccc(C)c(-c3ccc(C(=O)NCc4ccc(Cl)cc4)cc3)c2)o1 [GW708893X] | 1.038 |
| COc1ccc2ncn(-c3cc(O[C@H](C)c4ccccc4C(F)(F)F)c(C(N)=O)s3)c2c1 [GSK317315A] | 0.7483 |
| CCn1cc(-c2ccnc3[nH]ccc23)c(-c2cccc(NC(=O)Nc3ccc(OCc4ccccc4)cc3)c2)n1 [GSK718429A] | 1.268 |
| O=C1Nc2ccc(C(=O)c3ccco3)cc2C1=Cc1cc(Cl)c(O)c(Cl)c1 [GW406108X] | 1.311 |
| COc1ccc(C2=C(N3CCc4ccccc43)C(=O)NC2=O)cc1 [SB-361058] | 1.153 |
| CN(C)Cc1ccc(-c2ccc3c(Nc4ccc(Oc5ccccn5)cc4)ccnc3c2)o1 [GW567148X] | 1.129 |
| Nc1nccc(-c2c(-c3ccc(F)cc3)ncn2C2CCNCC2)n1 [SB-220025-R] | 1.112 |
| Cn1cc(-c2ccc3c(c2)CCN3C(=O)Cc2ccccc2Cl)c2c(N)ncnc21 [GSK2608885A] | 1.437 |
| O=C(Nc1n[nH]c2nc(-c3ccccc3)c(Cl)cc12)C1CC1 [SB-734909] | 1.154 |
| CCCc1ccc(S(=O)(=O)NC2CCN(c3ccnc(Nc4ccc(OC)cc4)n3)C2)cc1 (centres unmarked) [GSK1379737A] | 0.6293 |
| NCc1ccc(-n2c(-c3nonc3N)nc3cnccc32)cc1 [SB-750140] | 1.416 |
| COC(=O)Nc1nc2ccc(Oc3ccc(NC(=O)Nc4cccc(SC)c4)cc3)cc2[nH]1 [GW697999A] | 1.427 |
| CCCN1CCCC(c2ccc(Nc3nc(Nc4cc(F)ccc4C(N)=O)c4cc[nH]c4n3)c(OC)c2)C1 (centres unmarked) [GSK1173862A] | 1.98 |
